# Like-named read-outs stand apart in the source and are kept apart here.
# Experiments:
# ZR-75-1 cells [1] = assay: cells; conditions: for cell proliferation (3H-thymidine): six day period
# Experimental: The ZR-75-1 cell line (passage 89) was obtained from the American Type Culture Collection (Rockville, Md.). The cells were cultured in RPMI-1640 medium containing 10% heat-inactivated fetal calf serum, 200 μM L-glutamine, […] HEPES, 1.5 U/ml penicillin, and 1.5 μg/ml streptomycin in 5% CO2 at 37° C. The cells were passaged twice weekly.
# (§1) Cells were first seeded at initial density of 1×10^5 cells per ml in quadruplicates in 24 multi-well flat bottom plates (Costar). Cells were then allowed to adhere and grow in phenol red-free […] media supplemented with 10% heat-inactivated fetal calf serum (FCS), 200 μM L-glutamine, 10 mM HEPES, 2.5 U/ml penicillin and 2.5 μg/ml streptomycin in 5% CO2 at 37° C. After 48 hours, four wells were sacrificed and counted to determine plating efficiency. In the remaining wells, medium was removed by aspiration and cells in each well were exposed to the media containing the specified steroid. The controls containing only medium or medium with vehicle were also prepared. In all samples, medium was changed every 48 hours. At the pre-established time-point. Cells were removed by trypsinization and washed. Cell number and viability were determined by trypan blue exclusion using a hemocytometer. Parallel cultures were also run to determine cell proliferation.
# (§2) For cell proliferation assays, cell suspensions were prepared by trypsinization of cells from cultures prepared in accord with methods described above. Cell viability was determined by trypan blue exclusion. The cells were then seeded in flat-bottom 96-well microtiter plates at a density of 2×10^3 cells/well and were allowed to rest for 48 hours in order to adhere. Non-adherent dead cells were removed by aspiration. Cells were then grown in media without phenol red. Some of the media contained supplements as indicated above. […] The cells were then grown for six days. Media was changed on the samples every 48 hours. On day 6, cells were pulsed with 1 μCi[…]-thymidine for the last 6 hours of incubation before harvesting onto glass filter using a HPD cell harvester (Cambridge Technology, Watertown, Mass.) and counted on a KLB scintillation counter.
# ZR-75-1 cells (2×10^3) were treated as described above over a six day period with differing concentrations of αAED or with vehicle-only cultures. The medium was changed every 48 hours. Cells were pulsed with ^3H-thymidine for the last six hours of incubation.
# ZR-75-1 cells [2] = conditions: trypan blue exclusion
# Experimental: as §1
# P388D1 cells = conditions: RU486 at 0.5 μM and 1.0 μM
# Experimental: as §2
# RAW 264.7 = test system: RAW 264.7
# Experimental: as §2
# Effects of αAED at doses of 50 ηM and 100 ηM doses on murine macrophage myeloma cells (RAW 264.7, obtained from the American Type Culture Collection) was studied.
Structure (SMILES),cell proliferation in combination with RU486 (ZR-75-1 cells [1]; 0.1 μl concentrations of αAED with 0.5 μM RU486),cell proliferation (3H-thymidine) (ZR-75-1 cells [1]; 6.25 ηM),cell proliferation (3H-thymidine) (ZR-75-1 cells [1]; 12.5 ηM),cell proliferation (3H-thymidine) (ZR-75-1 cells [1]; 50 ηM),"IC50 (ZR-75-1 cells [1]; Homo sapiens, ZR-75-1, read-out: half-maximal dose of anti-proliferative effect) [nM]","maximal dose of anti-proliferative effect (ZR-75-1 cells [1]; ZR-75-1 cells, dose and time-dependent)","cell proliferation in the presence of estradiol (ZR-75-1 cells [1]; higher doses of αAED, 1 ηM estradiol, 6 day period)","concentration at which growth of ZR-75-1 cells was significantly inhibited (ZR-75-1 cells [1]; tritiated thymidine incorporation, in vitro)","cell proliferation in the presence of βAED (ZR-75-1 cells [1]; varied αAED, βAED constant at 2.5 ηM, six days)",cell proliferation in combination with RU486 (ZR-75-1 cells [1]; αAED with RU486 at 1 μM),cytotoxicity (cell count and viability) (ZR-75-1 cells [2]),effect on growth of P388D1 cells in combination with RU486 (P388D1 cells),proliferation of RAW 264.7 cells (RAW 264.7; 50 ηM),proliferation of RAW 264.7 cells (RAW 264.7; 100 ηM),antiproliferative effect on growth of ZR-75-1 cells (ZR-75-1 cells [1]; alone at 100 ηM)
"C[C@]12CC[C@H]3[C@@H](CC=C4C[C@@H](O)CC[C@@]43C)[C@@H]1CC[C@H]2O [αAED, 5-androstene 3β,17α diol]",synergistic action to decrease proliferation of cells,increasing proliferation,decreasing cell proliferation,marked decrease,50,100 ηM,suppressed proliferation even in the presence of estradiol,≥ 12.5 ηM,decreased proliferation at all concentrations,synergism was shown to be even greater,not toxic to the cells,increased effectiveness over use of one agent,significant inhibition of proliferation,significant inhibition of proliferation,
"C[C@]12CC[C@H]3[C@@H](CC=C4C[C@@H](O)CC[C@@]43C)[C@@H]1CC[C@@H]2O [βAED, 5-androstene 3β,17β diol, reference compound]",,,,,,,,,,,,,,,did not have any antiproliferative effect

# — patent US6977251B2, “5-androstene-3β, 17α diol as an inhibitor of tumor growth” (priority 1997, dated 2005)
